{"source": "patent US20240425805A1", "about": "“CELL CULTURE METHODS” (INTERNATIONAL N&H DENMARK APS, priority 2021, published 2024)", "key": {"[1]": {"test_system": "Lactobacillus crispatus", "assay": "Effect of ATP and ATPase on growth (OD600), Table 1", "type": "cell-based", "settings": "MRS media; 5 mM ATP; 37° C. anaerobically, 48 hours", "method": "(§1) Different growth media were inoculated with 1% over night grown culture of various bacterial and yeast species (as detailed in Table 1). Cells were grown in the presence of 5 mM exogenously-added ATP or 100 nM potato apyrase or bovine alkaline phosphatase (ATPase). Experiments were done in volumes of 200 μl per well in standard microtiter plates. Growth was assessed via plate reader at OD600 every 30 minutes for 48 hours. All the experiments were done at 37° C. anaerobically except for yeast strain Kazachstania unispora where cells were grown aerobically at 28° C."}, "[2]": {"test_system": "Prevotella copri", "assay": "Effect of ATP and ATPase on growth (OD600), Table 1", "type": "cell-based", "settings": "TSA media; 5 mM ATP; 37° C. anaerobically, 48 hours", "method": "as §1"}, "[3]": {"test_system": "Lactobacillus rhamnosus", "assay": "Effect of ATP and ATPase on growth (OD600), Table 1", "type": "cell-based", "settings": "5 mM ATP, 37° C. anaerobically, 48 hours", "method": "as §1"}, "[4]": {"test_system": "Akkermansia sp", "assay": "Effect of ATP and ATPase on growth (OD600), Table 1", "type": "cell-based", "settings": "YCFAC + Mucin media; 5 mM ATP; 37° C. anaerobically, 48 hours", "method": "as §1"}, "[5]": {"test_system": "Bifidobacterium animalis", "assay": "Effect of ATP and ATPase on growth (OD600), Table 1", "type": "cell-based", "settings": "MRS media; 5 mM ATP; 37° C. anaerobically, 48 hours", "method": "as §1"}, "[6]": {"test_system": "Bifidobacterium longum", "assay": "Effect of ATP and ATPase on growth (OD600), Table 1", "type": "cell-based", "settings": "BHI media; 5 mM ATP; 37° C. anaerobically, 48 hours", "method": "as §1"}, "[7]": {"test_system": "Bifidobacterium Infantis", "assay": "Effect of ATP and ATPase on growth (OD600), Table 1", "type": "cell-based", "settings": "MRS media; 5 mM ATP; 37° C. anaerobically, 48 hours", "method": "as §1"}, "[8]": {"test_system": "Bacillus amyloliquefaciens", "assay": "Effect of ATP and ATPase on growth (OD600), Table 1", "type": "cell-based", "settings": "TSA media; 5 mM ATP; 37° C. anaerobically, 48 hours", "method": "as §1"}, "[9]": {"test_system": "Bifidobacterium lactis", "assay": "Effect of ATP and ATPase on growth (OD600), Table 1", "type": "cell-based", "settings": "MRS media; 5 mM ATP; 37° C. anaerobically, 48 hours", "method": "as §1"}, "[10]": {"test_system": "Kazachstania unispora", "assay": "Effect of ATP and ATPase on growth (OD600), Table 1", "type": "cell-based", "settings": "YM media; 5 mM ATP; aerobically at 28° C., 48 hours", "method": "as §1"}, "[11]": {"test_system": "Oscillibacter sp", "assay": "Effect of ATP and ATPase on growth (OD600), Table 1", "type": "cell-based", "settings": "YCFAC media; 5 mM ATP; 37° C. anaerobically, 48 hours", "method": "as §1"}, "[12]": {"test_system": "Bifidobacterium animalis", "assay": "Growth of B. animalis in MRS media, OD600 plate reader", "type": "cell-based", "settings": "24 hrs", "method": "MRS media was inoculated with 1% overnight grown culture of Bifidobacterium animalis. Cells were grown with the addition of 5 mM ATP (Sigma) or 100 nM potato apyrase (ATPase; Sigma catalog #A6535). Experiments were performed in volumes of 200 μl per well in standard microtiter plates. Growth was assessed via Synergy HTX multi-mode plate reader (Bio Tek Instruments) at OD600 every 30 minutes for 24 hrs. Each plate was incubated at 37° C. and shaken once every 30 mins just before the reading.\nMRS media was inoculated with 1% over night grown culture of B. animalis. Cells were grown with 100 nM potato apyrase (ATPase) or heat-treated (95° C. for 10 mins) 100 nM potato apyrase. Experiments were performed in volumes of 200 μl per well in standard microtiter plates. Growth was assessed via plate reader at OD600 every 30 minutes."}, "[13]": {"test_system": "CHO-GFP cell line", "assay": "GFP expression of CHO-GFP cell line in adherent culture, fluorescence imaging", "type": "cell-based, Chinese hamster", "settings": "10 nM ATPase; imaged after 60 hrs", "text": "(§2) The growth effect of exogenously added ATPase enzymes was examined on established mammalian (Chinese hamster ovary (CHO)) cell lines. CHO wild-type cell line was purchased from Creative Biogene (NY, USA) Cat No. CSC-C3064, and CHO cell line constitutively expressing Green Fluorescent Protein (CHO-GFP) was purchased from GenTarget, Inc (San Diego, CA, USA) Cat No. SC039-Puro. Wild type CHO cell line was maintained in CD OptiCHO™ (ThermoFisher) medium for growth in suspension. GFP expressing CHO cell line was maintained in RPMI 1640 media (ThermoFisher) for adherent growth. Cell lines were cultured in a humidified incubation chamber at 37° C. with 5% CO2.\nTo study the effect of exogenous ATPase on recombinant protein expression by mammalian cells, the CHO-GFP cell line was used. CHO-GFP cells were seeded onto the wells of 6-well plates at 1×10^4 cells per well and incubated for 12 hours. Subsequently, ATPase (potato Apyrase or bacterial enzyme CRC22110) were added to the wells at 10 nM final concentration and cells were incubated for an additional 48 hours For GFP expression visualization, cells were imaged after 60 hrs of incubation with ATPase by using Invitrogen™ EVOS™ FL Imaging System. […] The number of cells displaying fluorescence signal and the amount of fluorescence are both increased in the cultures grown with exogenous ATPases, potato apyrase or CRC22110."}, "[14]": {"test_system": "CHO wild-type cell line", "assay": "CHO cell growth in suspension, trypan blue cell count", "type": "cell-based, Chinese hamster", "settings": "for increase in CHO cell numbers: 10 nM ATPase, after 60 hrs of growth in suspension", "text": "as §2\nTo measure the effect on CHO cells in suspension, cultures were seeded onto the wells of 6-well plates at 1×10^4 cells per well and incubated for 12 hours. Subsequently, ATPase (potato apyrase or bacterial enzyme CRC22110 (SEQ ID NO:1)) were added to the wells at 10 nM final concentration and incubated for an additional 48 hours. The potato apyrase (Cat No. A6410) and, was sourced from Sigma. The recombinant CRC22110 (SEQ ID NO: 1) enzyme was purified from Bacillus cultures using chromatography methods known in the art. After a total of 60 hours in culture, cells were detached by trypsin treatment, stained with trypan blue and counted in a Countess 3 FL system (Invitrogen). Data on FIG. 4 show the effect of ATPase on CHO cell growth."}, "[15]": {"test_system": "B. animalis subsp. lactis 420", "assay": "eATP in culture supernatants, Luciferase Reporter Assay", "type": "cell-based", "settings": "100 nM potato apyrase; MRS, 37° C. anaerobic; 0, 7 and 13 hr", "method": "MRS media was inoculated with 1% overnight grown culture of B. animalis subsp. lactis 420. Cells were grown at 37° C. under anaerobic conditions with and without potato apyrase. Potato apyrase was used at 100 nM. 200 μl of the sample was collected at different time points. Cells were harvested by centrifugation at 5000 rpm for 5 mins. Supernatants were used to estimate nanomolar ATP using a Luciferase® Reporter Assay System (Promega).\nATP measurements were performed on supernatants collected at 0, 7 and 13 hr time points."}}, "data": [{"molecule": "Nc1ncnc2c1ncn2[C@@H]1O[C@H](COP(=O)(O)OP(=O)(O)OP(=O)(O)O)[C@@H](O)[C@H]1O", "note": "[ATP, Adenosine triphosphate]", "values": [{"measurement": "Sensitivity to ATP", "setting": "[1]", "result": "YES"}, {"measurement": "Sensitivity to ATP", "setting": "[2]", "result": "YES"}, {"measurement": "Sensitivity to ATP", "setting": "[3]; BHI media", "result": "YES"}, {"measurement": "Sensitivity to ATP", "setting": "[3]; MRS media", "result": "YES"}, {"measurement": "Sensitivity to ATP", "setting": "[4]", "result": "YES"}, {"measurement": "Sensitivity to ATP", "setting": "[5]", "result": "YES"}, {"measurement": "Sensitivity to ATP", "setting": "[6]", "result": "YES"}, {"measurement": "Sensitivity to ATP", "setting": "[7]", "result": "YES"}, {"measurement": "Sensitivity to ATP", "setting": "[8]", "result": "YES"}, {"measurement": "Sensitivity to ATP", "setting": "[9]", "result": "YES"}, {"measurement": "Sensitivity to ATP", "setting": "[10]", "result": "YES"}, {"measurement": "Sensitivity to ATP", "setting": "[11]", "result": "YES"}, {"measurement": "cellular growth (OD600)", "setting": "[12]; 5 mM exogenously added ATP, 37° C.", "result": "supressed"}]}, {"molecule": "CRC22110: recombinant bacterial enzyme CRC22110 (SEQ ID NO:1), Gallaecimonas xiamenensis 3-C-1, purified from Bacillus cultures (protein, listed as Gallaecimonas xiamenensis) ADKPACRAVFDAGSSGTRLFLYVQQEGGWQPWPGAKLGALADPVRQHQGPKAMAALAADLANSLEALRQDGPTNSEGQPRWQGFDWQQACRLQSVSVLATAGMRLAEQQDPVASVALWQEVQQALAGLLGPAVAIDARTLTGFEEGFYAWLAARARLGRSDMGIVEMGGASSQVAFPCPACDRADDAVQQVRLEGQTLDFYSYSFLGLGQDEAPKVLGVPHACRYGAGVKDPNWQLGQCQAQLPLTLGRALKDPYNFQGQGQGGYRQVPTEKAGVKDWLLTGAFQYNTPDQLDSCCLNQGQCYQPSTACFRVAYLPLYLDSLGVDPHSPDLDVSWTLGAVLCRNEQCLAPSKPPCRWRKAGCLAPSVGDGRPEGRPGQQPGGVQHRQH", "values": [{"measurement": "amount of fluorescence (GFP)", "setting": "[13]", "result": "increased"}, {"measurement": "number of cells displaying fluorescence signal (GFP)", "setting": "[13]", "result": "increased"}, {"measurement": "increase in CHO cell numbers", "setting": "[14]", "result": 3, "unit": "fold"}]}, {"molecule": "potato apyrase: potato apyrase (ATPase; Sigma), EC 3.6.1.5; SEQ ID NO: 3, predicted mature SEQ ID NO: 4 (protein, listed as Solanum tuberosum) KNVNAQIPLRRHLLSHESEHYAVIFDAGSTGSRVHVFRFDEKLGLLPIGNNIEYFMATEPGLSSYAEDPKAAANSLEPLLDGAEGVVPQELQSETPLELGATAGLRMLKGDAAEKILQAVRNLVKNQSTFHSKDQWVTILDGTQEGSYMWAAINYLLGNLGKDYKSTTATIDLGGGSVQMAYAISNEQFAKAPQNEDGEPYVQQKHLMSKDYNLYVHSYLNYGQLAGRAEIFKASRNESNPCALEGCDGYYSYGGVDYKVKAPKKGSSWKRCRRLTRHALKINAKCNIEECTFNGVWNGGGGDGQKNIHASSFFYDIGAQVGIVDTKFPSALAKPIQYLNAAKVACQTNVADIKSIFPKTQDRNIPYLCMDLIYEYTLLVDGFGLNPHKEITVIHDVQYKNYLVGAAWPLGCAIDLVSSTTNKIRVASS", "values": [{"measurement": "amount of fluorescence (GFP)", "setting": "[13]", "result": "increased"}, {"measurement": "number of cells displaying fluorescence signal (GFP)", "setting": "[13]", "result": "increased"}, {"measurement": "ATP accumulation in culture supernatant", "setting": "[15]", "result": "did not exhibit ATP accumulation"}, {"measurement": "nanomolar ATP over time in culture supernatant", "setting": "[15]", "result": "decrease"}, {"measurement": "increase in CHO cell numbers", "setting": "[14]", "result": 3, "unit": "fold"}, {"measurement": "number of viable cells in culture (trypan blue exclusion)", "setting": "[14]; 10 nM potato apyrase, 60 hours in culture", "result": "improves the number of viable cells in culture"}, {"measurement": "growth (OD600) versus cells-only control", "setting": "[12]; 100 nM potato apyrase alone", "result": "grew better than the cells-only control"}, {"measurement": "growth (OD600) in the presence of exogenously-added ATP", "setting": "[12]; 100 nM potato apyrase plus 5 mM ATP", "result": "negated the growth inhibitory effect of exogenously-added ATP"}]}]}
